Key:
VDR = VDR (Homo sapiens, UniProt P11473); assay: Luminescent proximity homogeneous assay (AlphaScreen): interaction of purified VDR, RxR and TRAP220 coactivator fragment; assay type: biochemical; details: after illumination (365 nm) for 3 min, mean ± SEM; for EC50: n >= 3, read-out: Activity (pEC50) (converted); for Emax: normalized to maximum response of LSN2148936 (100%)
Protocol: The activity of all molecules was evaluated using a luminescent proximity homogeneous assay to study interactions between purified VDR, RxR and a fragment of the transcriptional coactivator TRAP220 (Supporting Information). This method allowed us to monitor the interaction between TRAP220 and the activated VDR-RxR heterodimer, which is of mechanistic and physiological significance. Both the activation of VDR and the VDR-RxR heterodimer formation are necessary to promote the whole complex association. This system efficiently includes conformational events of the receptor upon activation that go beyond a simple binding measurement. […]
The activity of all molecules was evaluated using an in-vitro luminescent proximity homogeneous assay by using the Alphascreen technology (Cat No. 6760619R, Perkin Elmer, now Revvity). In a transparent 96-well preplate, 10X concentrations of the compounds were prepared in assay buffer (0.1% bovine serum albumin, 2 mM 1,4-dithiothreitol, 25 mM HEPES and 100 mM NaCl; pH 7.3). LSN2148936 was used as positive control. Purified histidine-tagged VDR (44 µM), flag-RxRa (5.7 µM), biotin tagged TRAP220 transcriptional coactivator (500 µM), and the donor and acceptor beads from the AlphaScreen kit (2 µL/mL each), were diluted in assay buffer. In the dark, 6 µL/well of each test compound were pipetted on a white, shallow 96-well ProxiPlateTM […]
(Perkin Elmer, now Revvity, Cat.No. 6006290) in duplicate. Immediately, 54 µL of the protein solution were added and the plate was covered and incubated for 30 min at room temperature in the dark. Meanwhile, the plate with the 10X dilutions was illuminated at 365 nm for 3 min in a 96-well DED array plate (LEDA Teleopto), to allow the photoconversion of the molecules to their cis configuration. The illuminated compounds were mixed with the protein solution and incubated as described above for the plate in the dark. After the incubation time, the counts of both, the dark and illuminated plates, were measured in a Tecan Spark 20M Multimode plate reader with defined settings (excitation: 680 nm, emission: 520-620 nm, excitation time: 100ms, integration time: 300 ms). Biotinylated-His6 peptide (PerkinElmer) was used as a quality control reagent for AlphaScreen® assays and to evaluate compound interaction with the method. The raw data were normalized to the effect of the buffer (0%) and the maximum response obtained with LSN2148936 (100%). Dose-response curves and EC50 values were calculated with Graphpad software. Each experiment was performed in triplicate, with 2 replicates per plate.
4. Hydrogen/deuterium exchange coupled to mass spectrometry (HDX-MS)
The HDX-MS experiments were performed with an in-house automated modular system interfaced with an Orbitrap Exploris 480 mass spectrometer.1 Two inter-day experiments were conducted: one in the dark (first day) and one illuminated with 365 nm light (second day). Sample preparation and on-exchange reactions were performed on opaque plates (VWR® Real-Time […]
mm, Part Nº BC5226) light source was positioned above the Tecan system used for sample preparation. The distance between the UV light and the opaque plates was 80 cm. The 365 nm light illuminated the sample preparation process and the on-exchange reaction on the second day.
A 10 µM VDR-LBD protein stock solution was prepared in 20 mM HEPES buffer (with 150 mM NaCl, 10 mM D-L Methionine and 5 mM DTT) at pH 7.5. The compound 11b was prepared at 10 mM in DMSO. The protein: compound-complex (1:10 molar ratio) was pre-incubated for 1h before the first on-exchange reaction. The HDX reaction was initiated by a 5-fold dilution of the protein stock solution, in the presence and absence of compound 11b, in the corresponding Deuterated buffer at room temperature. Samples were prepared in parallel with three replicates of […]
time point, HDX reactions were quenched with a solution of 3 M Urea and 1% TFA (pH 2.5) followed by online proteolysis with an in-house Pepsin immobilized column and desalting […]

[1] = Proportions of cis and trans at the photostationary state in DMSO from absorbance spectra (Ernst Fischer method); assay type: physicochemical
Protocol: 2. Photochemical characterization.
A 50 µM solution of each compound in DMSO was dispensed into a transparent 96-well plate (200 µL per well). The absorption spectra were recorded from 300 to 600 nm with 2 nm fixed intervals using a Tecan Spark 20M Multimode microplate reader. Initial measurements were performed in the dark, followed by spectra acquired immediately after each 3 min period of light irradiation at different wavelengths using 96-well LED array plates (LEDA Teleopto). Theoretical absorbance spectra corresponding to the pure cis isomer (100%) of each compound were calculated in order to obtain the theoretical percentage of cis isomer at each wavelength, according to the method described by Ernst Fischer (1967). […]
Table S6. Proportions of cis and trans at the photostationary state in DMSO. […]

VDR, sequence (P11473 whole entry, the tested form may be a part): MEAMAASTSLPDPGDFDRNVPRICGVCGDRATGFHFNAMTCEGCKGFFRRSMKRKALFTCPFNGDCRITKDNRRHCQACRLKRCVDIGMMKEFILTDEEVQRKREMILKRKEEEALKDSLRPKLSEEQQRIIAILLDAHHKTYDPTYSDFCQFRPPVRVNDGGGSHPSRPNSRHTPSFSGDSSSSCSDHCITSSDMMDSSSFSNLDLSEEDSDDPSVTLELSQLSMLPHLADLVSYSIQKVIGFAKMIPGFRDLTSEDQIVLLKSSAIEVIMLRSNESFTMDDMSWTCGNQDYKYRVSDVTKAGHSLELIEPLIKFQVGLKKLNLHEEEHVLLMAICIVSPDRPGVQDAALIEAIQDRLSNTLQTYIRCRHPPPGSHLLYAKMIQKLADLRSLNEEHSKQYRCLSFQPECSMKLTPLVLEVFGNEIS
VDR, sequence (P19793 whole entry partner, the tested form may be a part): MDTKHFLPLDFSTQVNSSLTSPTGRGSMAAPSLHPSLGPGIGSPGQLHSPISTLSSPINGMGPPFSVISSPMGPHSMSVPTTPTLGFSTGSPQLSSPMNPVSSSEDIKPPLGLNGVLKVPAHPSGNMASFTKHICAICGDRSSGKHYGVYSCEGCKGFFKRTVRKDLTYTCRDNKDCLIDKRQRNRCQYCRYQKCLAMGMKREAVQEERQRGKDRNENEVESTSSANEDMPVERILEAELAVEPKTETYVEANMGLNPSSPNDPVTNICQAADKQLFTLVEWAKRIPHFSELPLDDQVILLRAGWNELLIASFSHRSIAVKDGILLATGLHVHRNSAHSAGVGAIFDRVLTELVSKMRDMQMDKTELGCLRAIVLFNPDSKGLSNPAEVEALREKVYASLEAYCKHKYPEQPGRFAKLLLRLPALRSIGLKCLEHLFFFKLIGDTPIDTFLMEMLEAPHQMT
VDR, sequence (Q15648 whole entry partner, the tested form may be a part): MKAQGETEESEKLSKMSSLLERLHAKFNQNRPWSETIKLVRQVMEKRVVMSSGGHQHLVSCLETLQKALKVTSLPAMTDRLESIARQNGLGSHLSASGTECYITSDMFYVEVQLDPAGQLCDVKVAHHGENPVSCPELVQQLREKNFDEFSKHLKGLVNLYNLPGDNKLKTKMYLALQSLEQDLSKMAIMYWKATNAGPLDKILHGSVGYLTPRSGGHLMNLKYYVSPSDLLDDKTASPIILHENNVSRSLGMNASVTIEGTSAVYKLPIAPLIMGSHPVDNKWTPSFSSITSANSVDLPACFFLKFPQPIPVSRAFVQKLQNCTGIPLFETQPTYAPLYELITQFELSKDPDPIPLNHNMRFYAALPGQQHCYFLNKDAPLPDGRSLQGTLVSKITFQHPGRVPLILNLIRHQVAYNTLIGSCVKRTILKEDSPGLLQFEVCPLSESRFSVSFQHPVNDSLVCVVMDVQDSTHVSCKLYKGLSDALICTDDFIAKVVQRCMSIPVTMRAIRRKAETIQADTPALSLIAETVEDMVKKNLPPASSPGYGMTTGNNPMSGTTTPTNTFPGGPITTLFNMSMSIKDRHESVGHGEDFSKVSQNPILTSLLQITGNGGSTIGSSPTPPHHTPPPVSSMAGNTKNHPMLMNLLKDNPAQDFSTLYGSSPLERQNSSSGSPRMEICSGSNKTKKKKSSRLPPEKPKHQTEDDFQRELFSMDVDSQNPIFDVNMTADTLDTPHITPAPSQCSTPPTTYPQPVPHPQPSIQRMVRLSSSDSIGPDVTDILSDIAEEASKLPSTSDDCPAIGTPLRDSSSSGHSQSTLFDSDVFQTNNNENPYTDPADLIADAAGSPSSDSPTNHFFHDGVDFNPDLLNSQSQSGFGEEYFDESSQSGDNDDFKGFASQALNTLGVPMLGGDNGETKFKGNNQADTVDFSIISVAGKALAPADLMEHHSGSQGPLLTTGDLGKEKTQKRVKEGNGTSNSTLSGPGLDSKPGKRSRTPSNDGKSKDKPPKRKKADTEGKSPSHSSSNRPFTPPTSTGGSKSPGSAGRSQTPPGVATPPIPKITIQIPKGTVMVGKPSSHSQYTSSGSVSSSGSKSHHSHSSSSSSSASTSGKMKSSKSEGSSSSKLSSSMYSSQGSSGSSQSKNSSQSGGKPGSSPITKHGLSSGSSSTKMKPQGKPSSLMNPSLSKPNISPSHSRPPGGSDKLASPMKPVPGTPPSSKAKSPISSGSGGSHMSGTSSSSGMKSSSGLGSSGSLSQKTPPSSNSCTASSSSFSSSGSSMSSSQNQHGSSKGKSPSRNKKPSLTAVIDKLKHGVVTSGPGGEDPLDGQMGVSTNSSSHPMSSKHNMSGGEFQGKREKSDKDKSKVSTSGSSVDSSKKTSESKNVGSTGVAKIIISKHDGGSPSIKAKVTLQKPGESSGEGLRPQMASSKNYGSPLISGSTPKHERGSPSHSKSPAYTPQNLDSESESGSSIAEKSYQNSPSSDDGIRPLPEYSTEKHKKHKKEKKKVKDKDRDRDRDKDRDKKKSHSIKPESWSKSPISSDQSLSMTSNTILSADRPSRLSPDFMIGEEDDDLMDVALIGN

| Compound | EC50 (VDR) [nM] | Emax (VDR) [%] | %cis at the photostationary state ([1]; 365 nm) | %trans at the photostationary state ([1]; 365 nm) | %cis at the photostationary state ([1]; 380 nm) | %trans at the photostationary state ([1]; 380 nm) | %cis at the photostationary state ([1]; 405 nm) | %trans at the photostationary state ([1]; 405 nm) | %cis at the photostationary state ([1]; 420 nm) | %trans at the photostationary state ([1]; 420 nm) | %cis at the photostationary state ([1]; 470 nm) | %trans at the photostationary state ([1]; 470 nm) | %cis at the photostationary state ([1]; 500 nm) | %trans at the photostationary state ([1]; 500 nm) | %cis at the photostationary state ([1]; 530 nm) | %trans at the photostationary state ([1]; 530 nm) |
| --- | --- | --- | --- | --- | --- | --- | --- | --- | --- | --- | --- | --- | --- | --- | --- | --- |
| Cc1cc(/N=N/c2cccc(-c3ccc(CO)cc3)c2)ccc1OCC(O)C(C)(C)C (stereo not drawn) [Compound 12a] | 339 | 31 ± 3.13 | 97,06% | 2,94% | 95,61% | 4,39% | 63,64% | 36,36% | 60,45% | 39,55% | 33,06% | 66,94% | 34,03% | 65,97% | 30,20% | 69,80% |
| Cc1cc(OCC(O)C(C)(C)C)ccc1/N=N/c1cccc(-c2ccc(CO)cc2)c1 (stereo not drawn) [Compound 12b] | 794 | 44 ± 5.37 | 96,19% | 3,81% | 95,15% | 4,85% | 62,30% | 37,70% | 59,96% | 40,04% | 29,61% | 70,39% | 25,15% | 74,85% | 19,72% | 80,28% |
| Cc1cc(OCC(O)C(C)(C)C)ccc1/N=N/c1cccc(-c2ccc(CO)cc2C)c1 (stereo not drawn) [Compound 12d] | 95.5 | 61 ± 2.01 | 96,92% | 3,08% | 95,77% | 4,23% | 63,77% | 36,23% | 60,13% | 39,87% | 32,14% | 67,86% | 33,18% | 66,82% | 29,47% | 70,53% |

Source: publication PMC12746157, “Light-Regulated Agonists Spatiotemporally Activating the Vitamin D Receptor Mitigate Psoriasis-like Inflammation in Mice without Inducing Hypercalcemia” (ACS Central Science, 2025)
